# Assay results from US10759835B2, “Monomeric streptavidin mutants, methods of using the same and processes of manufacturing proteins” (The Research Foundation for The State University of New York, priority 2016, dated 2020).
# Assay: Fluorescence polarization spectroscopy, biotin dissociation rate (koff)
# Type: binding
# Settings: 37° C.
# Experimental: FIG. 4. In vitro characterization of purified mSA mutants. a) Stability of mSA-RF and mSA-RWT in PBS was measured by circular dichroism spectroscopy with or without biotin. b) Fluorescence polarization spectroscopy was used to measure the dissociation rate of biotin-fluorescein. The dissociation rate, koff, was computed by fitting normalized fluorescence polarization data, or bound fraction f, to an exponentially decaying function, i.e. ƒ=e^−k^off^*t The measurements were taken at 37° C. c) The equilibrium affinity of binding Kd between mSA-RF and biotin-fluorescein was measured by FP. d) mSA-S25H and mSA-RF were analyzed by size exclusion chromatography to estimate their molecular weights in solution. […]
# The binding of biotinylated fluorescein (bf, AnaSpec) was measured using a microplate reader (SpectraMax® i3 Microplate reader from Molecular Devices) in flat bottom 96 well plates (Sterilin Ltd). […] After overnight incubation at room temperature, the fluorescence polarization values were measured and fit to the quadratic binding equation (Hsu and Park, 2010, J Mol Graph Model, 29, 295-308). […] To observe dissociation of bf, excess free biotin was added to a final concentration of 100 μM and recording of fluorescence was started immediately. The intensity of polarized fluorescence was measured at various time points and normalized with respect to the value at t=0 min. […]
substance,measurement,setting,value
"Wt SA: wild type streptavidin, tetrameric, SEQ ID NO: 20 [reference compound]",t1/2,"dissociation half-life t1/2=0.693/koff, biotin-fluorescein",12.5 ± 4.35 h
same,Koff(×10^−3 min^−1),"dissociation of biotin-fluorescein, excess free biotin 100 μM",0.923 ± 0.0253 ×10^−3 min^−1
